Laboratory results taken from paper PMC3448010 (Biochemistry, 2012).
Where “and” joins values, the source holds several entries; their conditions need not be identical. Equal entries are not always repeated. Where two headings read alike, the source gives them in different places.

Experiments:
SULT2A1 [1] = target: T1, SULT2A1 (Homo sapiens, UniProt Q06520); assay: Equilibrium ligand binding monitored by intrinsic enzyme fluorescence
T1 sequence (Q06520 1-285): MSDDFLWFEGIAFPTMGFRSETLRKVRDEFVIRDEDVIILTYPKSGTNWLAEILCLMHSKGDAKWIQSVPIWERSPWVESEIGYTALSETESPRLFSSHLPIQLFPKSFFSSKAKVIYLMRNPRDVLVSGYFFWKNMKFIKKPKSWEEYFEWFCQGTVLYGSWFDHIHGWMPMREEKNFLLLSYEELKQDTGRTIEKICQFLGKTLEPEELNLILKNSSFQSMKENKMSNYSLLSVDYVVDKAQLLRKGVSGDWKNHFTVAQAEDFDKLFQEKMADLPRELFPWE

[2] = cited from earlier work
SULT2A1 [3] = target: T1, SULT2A1; assay: Initial-rate kinetics of raloxifene and DHEA sulfation; settings: for Kia: co-substrate extrapolated to zero; for Km: 25 °C, pH 7.4, sequential Bi-Bi fit
SULT2A1 [4] = target: T1, SULT2A1; assay: Presteady state
SULT2A1 [5] = target: T1, SULT2A1; settings: read-out: typical Km; cited from earlier work

## C[C@]12CC[C@H](O)CC1=CC[C@@H]1[C@@H]2CC[C@]2(C)C(=O)CC[C@@H]12 [DHEA, 5-dehydroepiandrosterone]
SULT2A1 [1]; Kd, enzyme species E· (unliganded)
  Kd: 1 µM
SULT2A1 [1]; Kd, enzyme species PAP·E·, global fit of titrations at five PAP concentrations
  Kd: 1.1 µM
SULT2A1 [1]; global fit, five PAP concentrations
  synergy between PAP and acceptor: 1.1 (± 0.2)
[2]
  sulfated in-vivo: > 99%
SULT2A1 [3]; DHEA vs raloxifene
  kcat/Km relative to raloxifene: 135 fold
SULT2A1 [3]; DHEA/PAPS substrate pair
  Kia: 1.8 (0.1) μM
SULT2A1 [3]; from kinetic constants
  positive synergy in the interaction with PAPS: 1.4 fold
SULT2A1 [4]
  Kd: 1.1 µM
SULT2A1 [4]; enzyme species E· (unliganded)
  koff: 2.1 s⁻¹
SULT2A1 [4]; enzyme species PAPS·E·
  koff: 3 s⁻¹

## Nc1ncnc2c1ncn2[C@@H]1O[C@H](COP(=O)(O)O)[C@@H](OP(=O)(O)O)[C@H]1O [PAP, 3′, 5′-diphosphoadenosine]
SULT2A1 [1]; Kd, enzyme species DHEA·E·
  Kd: 0.21 µM
SULT2A1 [1]; Kd, enzyme species Ral·E·
  Kd: 6 µM

## Nc1ncnc2c1ncn2[C@@H]1O[C@H](COP(=O)(O)OS(=O)(=O)O)[C@@H](OP(=O)(O)O)[C@H]1O [PAPS, 3′-phosphoadenosine 5′-phosphosulfate]
SULT2A1 [1]; enzyme species E· (unliganded)
  Kd: 0.28 µM
SULT2A1 [5]
  Km: ~0.3 µM
SULT2A1 [3]; DHEA/PAPS substrate pair
  kcat: 0.7 (0.03) sec^−1
  Km: 0.39 µM
  Kia: 0.47 (0.06) μM
SULT2A1 [3]; RAL/PAPS substrate pair
  kcat: 0.10 (0.01) sec^−1
  Km: 5.9 µM
  Kia: 0.24 (0.04) μM
SULT2A1 [4]; enzyme species DHEA·E·
  koff: 2.1 s^−1 and 1.9 (0.2) s^−1
SULT2A1 [4]; enzyme species E· (unliganded)
  koff: 2.1 s^−1 and 2.3 (0.3) s^−1
SULT2A1 [4]; enzyme species RAL·E·, raloxifene 50 μM
  koff: 50 (2) s^−1
SULT2A1 [4]; off-rate constants
  faster escape from PAPS·E·raloxifene than from PAPS·E and PAPS·E·DHEA: 24 fold
SULT2A1 [4]; raloxifene prevents gate closure
  weakening in PAPS affinity with raloxifene bound: 21 fold
SULT2A1 [4]; read-out: Kd (koff/kon), enzyme species DHEA·E·
  Kd: 0.24 µM
SULT2A1 [4]; read-out: Kd (koff/kon), enzyme species E· (unliganded)
  Kd: 0.27 µM
SULT2A1 [4]; read-out: Kd (koff/kon), enzyme species RAL·E·, raloxifene 50 μM
  Kd: 6 µM
